US20110087037A1, “SYNTHESIS OF RING B ABEO-STEROLS AS NOVEL INHIBITORS OF MYCOBACTERIUM TUBERCULOSIS” (priority 2007, published 2011)
Converted amounts (≈) assume the structure as drawn. “Also recorded” adds a separate entry of the source. Read-outs that look alike come from different tables or passages of the source.

Assays:
VERO cells (ATCC CCL-81) = assay: Cytotoxicity against VERO cells; format: cell-based
Mtb H37Rv (ATCC 27294) = assay: Microplate Alamar Blue Assay (MABA), in vitro M. tuberculosis growth inhibition; format: cell-based, Mycobacterium tuberculosis; settings: for meaningful activity against Mtb: at 64 μg/mL
[1] = patients on TB therapy; cited from earlier work
[2] = 16 μg/mL, Mtb H37Rv, MABA, mean of three experiments
[3] = 32 μg/mL, Mtb H37Rv, MABA, mean of three experiments
[4] = 64 μg/mL, Mtb H37Rv, MABA, mean of three experiments
[5] = 128 μg/mL, Mtb H37Rv, MABA, mean of three experiments
[6] = lowest drug concentration that effected an inhibition of ≧90% relative to untreated cultures, Mtb H37Rv
[7] = 2 μg/mL, Mtb H37Rv, MABA, mean of three experiments
[8] = 4 μg/mL, Mtb H37Rv, MABA, mean of three experiments
[9] = 8 μg/mL, Mtb H37Rv, MABA, mean of three experiments

| Compound | Cyto-toxicity IC50 (VERO cells (ATCC CCL-81)) | % Inhibition (Mtb H37Rv (ATCC 27294); [2]) [%] | % Inhibition (Mtb H37Rv (ATCC 27294); [3]) [%] | % Inhibition (Mtb H37Rv (ATCC 27294); [4]) [%] | % Inhibition (Mtb H37Rv (ATCC 27294); [5]) [%] | meaningful activity against Mtb (Mtb H37Rv (ATCC 27294)) | MIC (Mtb H37Rv (ATCC 27294); [6]) [µg/mL] | Adverse reactions, Infrequent (≧1 per 1,000 patients and <1 per 100 patients) [1] | % Inhibition (Mtb H37Rv (ATCC 27294); [7]) [%] | % Inhibition (Mtb H37Rv (ATCC 27294); [8]) [%] | % Inhibition (Mtb H37Rv (ATCC 27294); [9]) [%] | further results |
| --- | --- | --- | --- | --- | --- | --- | --- | --- | --- | --- | --- | --- |
| CC(C)C(C)C1(C)CC1C(C)C1CCC2C3CC=C4CC(O)CCC4(C)C3CCC12C (centres unmarked) [Compound 8] | >128 (n.d.) μg/mL | 10 | 13 | 18 | 38 | none | >128 | – | – | – | – | – |
| NC(=O)c1cnccn1 [Pyrazinamide] | – | – | – | – | – | – | – | Hepatitis and Rash and Nausea | – | – | – | Adverse reactions, Common (≧1-5 per 100 patients) [1]: Nausea; Adverse reactions, Frequent (≧5 per 100 patients) [1]: Arthralgias |
| CC(C)[C@@H](C)CC[C@@H](C)[C@H]1CC[C@H]2[C@@H]3C(C=O)=C4C[C@@H](O)CC[C@]4(C)[C@H]3CC[C@]12C [Compound 11] | – | 99 | 99 | 100 | 99 | – | 3.9 (≈ 9.4 µM) | – | 39 | 94 | 97 | – |
| C=C(CC[C@@H](C)[C@H]1CC[C@H]2[C@@H]3CC=C4C[C@@H](O)CC[C@]4(C)[C@H]3CC[C@]12C)C(C)C [Compound 1] | >128 (n.d.) μg/mL | 33 | 43 | 40 | 97 | none | 120.1 (≈ 301 µM) | – | – | – | – | activity against M. tuberculosis H37Rv (Mtb H37Rv (ATCC 27294)): only marginal activity |
| CO[C@H]1/C=C/O[C@@]2(C)Oc3c(C)c(O)c4c(O)c(c(/C=N/N5CCN(C)CC5)c(O)c4c3C2=O)NC(=O)/C(C)=C\C=C\[C@H](C)[C@H](O)[C@@H](C)[C@@H](O)[C@@H](C)[C@H](OC(C)=O)[C@@H]1C [RMP, Rifampin] | – | – | – | – | – | – | – | Hepatitis; also recorded: Pruritus; also recorded: Flu syndrome; also recorded: Drug fever | – | – | – | Adverse reactions, Frequent (≧5 per 100 patients) [1]: Liver enzyme elevations; also recorded: Orange discoloration |
| CC[C@@H](CO)NCCN[C@@H](CC)CO [Ethambutol] | – | – | – | – | – | – | – | Retrobulbar neuritis; also recorded: Periaxial ocular toxicity | – | – | – | – |
| CC(C)[C@@H](C)CC[C@@H](C)[C@H]1CC[C@H]2[C@@H]3CC=C4C[C@@H](O)CC[C@]4(C)[C@H]3CC[C@]12C [Compound 10] | >128 (n.d.) μg/mL | 21 | 31 | 41 | 58 | none | >128 | – | 15 | 14 | 23 | – |
| [H]/N=C(/N)N[C@H]1[C@H](O)[C@@H](O)[C@H](O[C@@H]2O[C@@H](C)[C@](O)(C=O)[C@H]2O[C@@H]2O[C@@H](CO)[C@H](O)[C@@H](O)[C@@H]2NC)[C@@H](N/C(N)=N\[H])[C@@H]1O [Streptomycin] | – | – | – | – | – | – | – | Renal damage | – | – | – | Adverse reactions, Common (≧1-5 per 100 patients) [1]: Cochlear toxicity; also recorded: Hypersensitivity; Adverse reactions, Frequent (≧5 per 100 patients) [1]: Vestibular toxicity |
| C=C(CC[C@@H](C)[C@H]1CC[C@H]2[C@@H]3C(C=O)=C4C[C@@H](O)CC[C@]4(C)[C@H]3CC[C@]12C)C(C)C [Compound 2] | 51 µg/mL | 105 | 99 | 99 | 99 | – | 7.8 (≈ 18.9 µM) | – | 52 | 69 | 91 | – |
| CCC(CCC(C)C1CCC2C3CC=C4CC(O)CCC4(C)C3CCC12C)C(C)C (centres unmarked) [Compound 4] | >128 (n.d.) μg/mL | 32 | 31 | 48 | 45 | none | >128 | – | −1 | 8 | 7 | – |
| CC(C)CCC[C@@H](C)[C@H]1CC[C@H]2[C@@H]3CC=C4C[C@@H](O)CC[C@]4(C)[C@H]3CC[C@]12C [Compound 6, cholesterol] | – | – | – | – | – | none | – | – | – | – | – | inhibition at 16 µg/mL (Mtb H37Rv (ATCC 27294); Mycobacterium tuberculosis, 16 μg/mL, Mtb H37Rv, MABA, mean of three experiments): 33%; inhibition at 32 µg/mL (Mtb H37Rv (ATCC 27294); Mycobacterium tuberculosis, 32 μg/mL, Mtb H37Rv, MABA, mean of three experiments): 13%; inhibition at 64 µg/mL (Mtb H37Rv (ATCC 27294); Mycobacterium tuberculosis, 64 μg/mL, Mtb H37Rv, MABA, mean of three experiments): 24%; inhibition at 128 µg/mL (Mtb H37Rv (ATCC 27294); Mycobacterium tuberculosis, 128 μg/mL, Mtb H37Rv, MABA, mean of three experiments): 57%; MIC (Mtb H37Rv (ATCC 27294); Mycobacterium tuberculosis, read-out: MIC): > 128 µg/mL |
| CC(C)C(C)C1(C)CC1C(C)C1CCC2C3C(C=O)=C4CC(O)CCC4(C)C3CCC12C (centres unmarked) [Compound 9] | – | 96 | 98 | 99 | 99 | – | 12.7 (≈ 28.8 µM) | – | 17 | 33 | 81 | – |
| NNC(=O)c1ccncc1 [Isoniazid] | – | – | – | – | – | – | – | Hepatitis; also recorded: Peripheral neuropathy; also recorded: Drug fever | – | – | – | Adverse reactions, Frequent (≧5 per 100 patients) [1]: Liver enzyme |
| CC(C)C(=O)CC[C@@H](C)[C@H]1CC[C@H]2[C@@H]3C(C=O)=C4C[C@@H](O)CC[C@]4(C)[C@H]3CC[C@]12C [Compound 3] | 43.8 µg/mL | 92 | 96 | 100 | 99 | – | 13.6 (≈ 32.8 µM) | – | 52 | 67 | 83 | – |
| CC(C)CCC[C@@H](C)[C@H]1CC[C@H]2[C@@H]3C(C=O)=C4C[C@@H](O)CC[C@]4(C)[C@H]3CC[C@]12C [Compound 7] | > 128 µg/mL | 96 | 99 | 99 | 99 | – | 15 (≈ 37.4 µM) | – | 10 | 34 | 51 | – |
| CCC(CCC(C)C1CCC2C3C(C=O)=C4CC(O)CCC4(C)C3CCC12C)C(C)C (centres unmarked) [Compound 5] | 26.6 µg/mL | 98 | 99 | 99 | 99 | – | 3.8 (≈ 8.86 µM) | – | 29 | 97 | 99 | – |
